Test results from ChEMBL document CHEMBL5523771, “Hydrazides as Inhibitors of Histone Deacetylases” (J Med Chem, 2024).
One block for each compound: values may come before it.

Key:
[1] = Inhibition of human HDAC1 (379 to 382 residues) using RHKKAc-AMC as substrate incubated for 60 mins by […] assay
Histone deacetylase 2 [2] = target: T1, Histone deacetylase 2 (Homo sapiens, UniProt Q92769); experiment: Inhibition of human HDAC2
Histone deacetylase 3 [3] = target: T2, Histone deacetylase 3 (Homo sapiens, UniProt O15379); experiment: Inhibition of human HDAC3
T2 sequence (O15379 whole entry): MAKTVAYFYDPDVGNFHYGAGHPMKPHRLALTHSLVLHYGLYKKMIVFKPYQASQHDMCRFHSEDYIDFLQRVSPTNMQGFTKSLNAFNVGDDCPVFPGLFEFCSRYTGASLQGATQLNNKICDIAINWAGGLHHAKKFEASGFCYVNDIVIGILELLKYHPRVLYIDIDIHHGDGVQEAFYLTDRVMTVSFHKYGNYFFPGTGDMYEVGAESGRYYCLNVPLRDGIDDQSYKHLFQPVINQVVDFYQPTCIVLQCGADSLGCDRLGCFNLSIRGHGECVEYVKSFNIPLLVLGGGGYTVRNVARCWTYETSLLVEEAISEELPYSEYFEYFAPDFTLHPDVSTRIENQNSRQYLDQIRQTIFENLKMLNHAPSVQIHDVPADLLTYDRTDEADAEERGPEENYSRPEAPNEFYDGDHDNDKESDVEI

Histone deacetylase 1 [4] = target: T3, Histone deacetylase 1 (Homo sapiens, UniProt Q13547); experiment: Inhibition of human HDAC1
T3 sequence (Q13547 whole entry): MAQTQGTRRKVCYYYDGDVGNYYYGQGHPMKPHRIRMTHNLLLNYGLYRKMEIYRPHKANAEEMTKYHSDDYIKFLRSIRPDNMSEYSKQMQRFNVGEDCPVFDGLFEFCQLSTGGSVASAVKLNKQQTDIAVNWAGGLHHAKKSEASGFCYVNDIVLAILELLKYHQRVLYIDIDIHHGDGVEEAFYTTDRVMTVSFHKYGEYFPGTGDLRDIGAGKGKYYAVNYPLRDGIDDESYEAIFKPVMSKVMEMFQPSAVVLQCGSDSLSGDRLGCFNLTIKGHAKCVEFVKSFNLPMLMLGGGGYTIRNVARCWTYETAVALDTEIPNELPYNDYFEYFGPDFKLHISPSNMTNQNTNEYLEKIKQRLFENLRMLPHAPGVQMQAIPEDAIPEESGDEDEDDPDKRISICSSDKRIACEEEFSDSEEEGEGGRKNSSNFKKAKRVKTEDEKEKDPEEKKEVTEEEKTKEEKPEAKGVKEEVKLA

Histone deacetylase 11 = target: T4, Histone deacetylase 11 (Homo sapiens, UniProt Q96DB2); experiment: Inhibition of human recombinant full length FLAG-tagged HDAC11 transfected in HEK293T cells using Ac-ETDKrnyr-AMC as substrate incubated for 30 mins by fluorescence based analysis
T4 sequence (Q96DB2 whole entry): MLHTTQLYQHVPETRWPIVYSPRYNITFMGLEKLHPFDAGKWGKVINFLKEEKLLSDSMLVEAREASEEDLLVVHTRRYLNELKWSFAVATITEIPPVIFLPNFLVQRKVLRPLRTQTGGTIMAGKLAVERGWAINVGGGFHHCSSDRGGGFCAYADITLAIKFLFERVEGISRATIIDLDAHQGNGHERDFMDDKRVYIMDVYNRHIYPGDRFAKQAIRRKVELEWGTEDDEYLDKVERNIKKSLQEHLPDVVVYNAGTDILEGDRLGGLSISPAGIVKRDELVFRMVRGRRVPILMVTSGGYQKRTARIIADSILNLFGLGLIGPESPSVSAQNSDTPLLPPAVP

[5] = target: T5, Protein deacetylase HDAC6 (Homo sapiens, UniProt Q9UBN7); experiment: Inhibition of HDAC6 (unknown origin)
T5 sequence (Q9UBN7 whole entry): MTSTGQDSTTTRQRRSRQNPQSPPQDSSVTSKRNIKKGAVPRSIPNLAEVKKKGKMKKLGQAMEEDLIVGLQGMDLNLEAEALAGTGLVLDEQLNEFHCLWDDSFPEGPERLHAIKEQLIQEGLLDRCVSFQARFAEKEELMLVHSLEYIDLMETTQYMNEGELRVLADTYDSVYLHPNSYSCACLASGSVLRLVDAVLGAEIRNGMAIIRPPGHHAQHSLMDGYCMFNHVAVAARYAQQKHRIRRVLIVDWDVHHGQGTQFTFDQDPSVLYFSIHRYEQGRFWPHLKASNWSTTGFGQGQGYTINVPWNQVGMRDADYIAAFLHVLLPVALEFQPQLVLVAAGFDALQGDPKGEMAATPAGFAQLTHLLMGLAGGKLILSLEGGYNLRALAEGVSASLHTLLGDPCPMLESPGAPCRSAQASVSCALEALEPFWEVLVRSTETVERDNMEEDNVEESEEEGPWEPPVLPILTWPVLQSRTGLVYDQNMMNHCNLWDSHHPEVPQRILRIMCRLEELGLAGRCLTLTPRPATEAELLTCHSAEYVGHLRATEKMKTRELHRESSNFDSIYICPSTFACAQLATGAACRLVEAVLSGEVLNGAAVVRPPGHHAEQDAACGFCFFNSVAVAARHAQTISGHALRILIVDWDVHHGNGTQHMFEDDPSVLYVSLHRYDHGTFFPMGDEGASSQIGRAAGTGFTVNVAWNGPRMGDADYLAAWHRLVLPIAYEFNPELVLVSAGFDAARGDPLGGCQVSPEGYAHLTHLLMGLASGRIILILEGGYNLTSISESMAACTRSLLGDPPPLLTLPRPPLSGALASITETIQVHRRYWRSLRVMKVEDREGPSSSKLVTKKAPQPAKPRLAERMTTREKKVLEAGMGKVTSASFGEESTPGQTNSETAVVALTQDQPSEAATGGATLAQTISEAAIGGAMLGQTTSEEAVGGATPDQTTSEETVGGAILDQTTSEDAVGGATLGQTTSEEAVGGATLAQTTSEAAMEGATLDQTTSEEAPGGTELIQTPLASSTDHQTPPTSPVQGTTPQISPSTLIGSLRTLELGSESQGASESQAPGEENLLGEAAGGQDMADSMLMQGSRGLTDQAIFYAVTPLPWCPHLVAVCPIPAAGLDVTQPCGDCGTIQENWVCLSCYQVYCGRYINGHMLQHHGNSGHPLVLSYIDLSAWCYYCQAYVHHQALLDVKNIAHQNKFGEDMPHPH

Histone deacetylase 1 [6] = target: T3, Histone deacetylase 1; experiment: Inhibition of HDAC1 (unknown origin)
Histone deacetylase 4 = Histone deacetylase 4 (Homo sapiens, UniProt P56524); experiment: Inhibition of HDAC4 (unknown origin)
Chain of Histone deacetylase 4 (P56524 whole entry): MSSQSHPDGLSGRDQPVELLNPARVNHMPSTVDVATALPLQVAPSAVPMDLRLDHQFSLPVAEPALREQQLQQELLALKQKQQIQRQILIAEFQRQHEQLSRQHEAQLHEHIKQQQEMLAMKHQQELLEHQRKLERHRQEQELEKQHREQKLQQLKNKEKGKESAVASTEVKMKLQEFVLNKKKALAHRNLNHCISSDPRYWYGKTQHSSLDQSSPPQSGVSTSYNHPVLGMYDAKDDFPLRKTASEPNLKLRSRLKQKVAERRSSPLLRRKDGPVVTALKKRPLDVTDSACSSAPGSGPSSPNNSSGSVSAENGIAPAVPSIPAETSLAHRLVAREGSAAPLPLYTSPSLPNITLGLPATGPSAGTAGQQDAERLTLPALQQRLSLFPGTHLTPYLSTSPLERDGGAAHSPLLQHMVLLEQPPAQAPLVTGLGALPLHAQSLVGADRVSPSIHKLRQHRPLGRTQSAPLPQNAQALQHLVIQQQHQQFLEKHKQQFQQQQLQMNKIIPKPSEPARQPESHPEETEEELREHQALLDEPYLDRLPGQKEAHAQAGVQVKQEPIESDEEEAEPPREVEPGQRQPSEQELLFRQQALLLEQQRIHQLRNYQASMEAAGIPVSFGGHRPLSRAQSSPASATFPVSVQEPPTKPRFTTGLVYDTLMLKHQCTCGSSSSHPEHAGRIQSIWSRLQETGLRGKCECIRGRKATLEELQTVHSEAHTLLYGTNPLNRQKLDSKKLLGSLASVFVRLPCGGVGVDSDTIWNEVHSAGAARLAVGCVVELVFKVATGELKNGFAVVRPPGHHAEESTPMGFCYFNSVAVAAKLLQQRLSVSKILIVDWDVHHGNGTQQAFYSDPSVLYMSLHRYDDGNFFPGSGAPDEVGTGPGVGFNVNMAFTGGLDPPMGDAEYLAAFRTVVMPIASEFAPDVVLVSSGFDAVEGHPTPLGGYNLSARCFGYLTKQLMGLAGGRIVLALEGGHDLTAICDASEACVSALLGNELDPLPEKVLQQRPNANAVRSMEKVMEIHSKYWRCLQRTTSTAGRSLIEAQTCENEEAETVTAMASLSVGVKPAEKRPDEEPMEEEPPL

Histone deacetylase 3 [7] = target: T2, Histone deacetylase 3; experiment: Inhibition of HDAC3 (unknown origin)
Histone deacetylase 8 = target: T6, Histone deacetylase 8 (Homo sapiens, UniProt Q9BY41); experiment: Inhibition of HDAC8 (unknown origin)
T6 sequence (Q9BY41 whole entry): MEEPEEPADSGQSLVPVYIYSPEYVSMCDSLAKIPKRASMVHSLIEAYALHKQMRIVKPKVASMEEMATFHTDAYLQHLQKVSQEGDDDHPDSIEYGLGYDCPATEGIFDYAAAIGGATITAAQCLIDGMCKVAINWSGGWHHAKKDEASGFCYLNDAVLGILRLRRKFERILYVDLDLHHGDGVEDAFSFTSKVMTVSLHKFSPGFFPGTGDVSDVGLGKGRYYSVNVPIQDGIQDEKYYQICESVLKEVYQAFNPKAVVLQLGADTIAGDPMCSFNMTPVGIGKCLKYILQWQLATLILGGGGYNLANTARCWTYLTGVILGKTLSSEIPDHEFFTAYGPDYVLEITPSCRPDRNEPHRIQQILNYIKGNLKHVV

Histone deacetylase 2 [8] = target: T1, Histone deacetylase 2; experiment: Inhibition of HDAC2 (unknown origin)

T1 sequence (Q92769 whole entry): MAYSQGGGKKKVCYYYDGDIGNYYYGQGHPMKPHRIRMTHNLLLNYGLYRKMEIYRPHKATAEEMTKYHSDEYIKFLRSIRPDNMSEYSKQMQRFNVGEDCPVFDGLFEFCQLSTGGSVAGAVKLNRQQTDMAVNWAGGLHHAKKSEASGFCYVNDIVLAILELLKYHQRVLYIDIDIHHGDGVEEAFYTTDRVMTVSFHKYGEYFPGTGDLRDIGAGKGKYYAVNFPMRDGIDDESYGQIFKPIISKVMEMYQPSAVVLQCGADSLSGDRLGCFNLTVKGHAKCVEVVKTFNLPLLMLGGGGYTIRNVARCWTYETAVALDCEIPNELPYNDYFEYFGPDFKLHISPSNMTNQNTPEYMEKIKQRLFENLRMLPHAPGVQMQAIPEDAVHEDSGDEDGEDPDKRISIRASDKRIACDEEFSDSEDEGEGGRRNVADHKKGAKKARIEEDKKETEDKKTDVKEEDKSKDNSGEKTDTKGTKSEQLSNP

- IC50 [1]: 0.133 µM
SMILES: CCCCNNC(=O)c1ccc(Br)cc1

- IC50 (Histone deacetylase 2 [2]): 0.53 µM
- IC50 (Histone deacetylase 3 [3]): 0.379 µM
- IC50 (Histone deacetylase 1 [4]): 0.828 µM
SMILES: CCCNNC(=O)CCCCCCC(=O)Nc1ccccc1

- IC50 (Histone deacetylase 11): 0.91 µM
SMILES: CCCCCCCCCCCCCCCCNNC(=O)c1ccc(N(C)C)cc1

- IC50 [5]: 8.96 µM
- IC50 (Histone deacetylase 1 [6]): 0.00042 µM
SMILES: CCCNNC(=O)c1ccc(Nc2nccc(N(C)c3ccc4c(C)n(C)cc4c3)n2)cc1

- IC50 (Histone deacetylase 1 [6]): 0.39 µM
- IC50 (Histone deacetylase 4): 3.18 µM
- IC50 (Histone deacetylase 3 [7]): 1.49 µM
- IC50 (Histone deacetylase 8): 1.54 µM
- IC50 (Histone deacetylase 2 [8]): 2.02 µM
SMILES: CCCC(CCC)C(=O)N[C@@H](Cc1ccccc1)C(=O)NNc1ccccc1

- IC50 (Histone deacetylase 4): > 100 µM
SMILES: CCCC(CCC)C(=O)O [VALPROIC ACID]
